Measured values: patent US4963589A, “Methods for treating Giardia lamblia” (The University of North Carolina at Chapel Hill, priority 1988, dated 1990)
Structures can show the parent of a compound that is named as a salt. Where two headings read alike, the source gives them in different places.

Experiments:
[1] = system: Giardia lamblia trophozoites, WB strain (ATCC #30957); assay: 3H-thymidine incorporation drug sensitivity assay, Giardia lamblia WB strain (ATCC 30957); type: cell-based; details: for IC50: Giardia duodenalis; for efficacy against Giardia lamblia (in words): qualitative statements on the results
Method: Giardia lamblia trophozoites were obtained from logarithmically growing stock cultures. Into the wells of a 96 well U-bottom tissue culture plate (Costar) was placed 100 μl of modified TYI-S-33 medium containing 2.5×10^4 trophozoites. The tissue culture plate was maintained in an anerobic environment by placing it inside a plastic box modified to allow nitrogen to be passed through the box via inlet and outlet tubing which could be clamped shut. Nitrogen was passed through the box for 2 minutes and the container was placed in a 37° C. incubator gassed with 5% CO2 in air.
Varying concentrations of ^3 H-thymidine (0.5, 1.0, 1.5 and 2.0 μCi/well) were added to wells containing 2.5×10^4 Giardia lamblia trophozoites at 2 hour intervals so that it might remain in contact with the trophozoites for 2 to 24 hours. After 24 hours of incubation, the cells were harvested with a multimash cell harvester by washing vigorously with ice-cold Hank's Balanced Salt Solution. Samples were collected on Whatman glass microfiber paper. the paper was air dried, samples were placed in 7 ml scintillation vials and the incorporation of ^3 H-thymidine was determined by liquid scintillation counting. Mean values were calculated from 5 replicates for each time point and concentration.
One hundred μl of modified TYI-S-33 medium containing 2.5×10^4trophozoites was placed into each well of a 96-well U-bottom plate. The plates were incubated under anaerobic conditions for 24 hours. After 24 hours, the compounds to be tested were prepared from the 2 mM stock solutions and 100 μl each solution was added to yield concentrations of 1, 10, 100 and 1000 μMin the wells. Ten μl of a 150 μCi/ml solution of ^3 H-thymidine (SA=10 Ci/mmole) in modified TYI-S-33 was added 6 hours after the addition of drug to yield a final concentration of 1.5 μCi/well. After an additional 18 hours of incubation the cells were harvested. Five replicates were run for each drug concentration and the mean values determined. Non-specific binding of the ^3 H-thymidine to the microfiber paper was determined through the use of control wells to which no organisms were added. The activities of compounds tested were determined by comparing the incorporation of ^ 3 H-thymidine in the wells to which the compounds were added to that of wells of drug free controls. The drug concentration required to inhibit 50% incorporation of ^3 H-thymidine (IC50) was determined (Chou, 1974).

[2] = system: Giardia lamblia Stock BRIS/83/HEPU/106; details: Table IV; Stock BRIS/83/HEPU/106 (Boreham et al., 1984); read-out: IC50 determined by 3H-thymidine incorporation; cited from earlier work
[3] = system: Giardia lamblia Stock BRIS/82/HEPU/41; details: Table IV; Stock BRIS/82/HEPU/41 (Boreham et al., 1984); read-out: IC50 determined by 3H-thymidine incorporation; cited from earlier work
[4] = system: Giardia lamblia Stock BRIS/83/HEPU/120; details: Table IV; Stock BRIS/83/HEPU/120 (Boreham et al., 1984); read-out: IC50 determined by 3H-thymidine incorporation; cited from earlier work
[5] = system: Giardia lamblia Stock BRI/83/HEPU/136; details: Table IV; Stock BRI/83/HEPU/136 (Boreham et al., 1984); read-out: IC50 determined by 3H-thymidine incorporation; cited from earlier work
[6] = ATCC30957, Table I, 50% inhibition of 3H-thymidine incorporation, WB strain, 24 h with drug, read-out: IC50, Giardia lamblia vs. para-amidines
[7] = ATCC30957, read-out: IC50, Giardia lamblia vs. para-amidines
[8] = ATCC30957, Table II, 50% inhibition of 3H-thymidine incorporation, WB strain, 24 h with drug, read-out: IC50, Giardia lamblia vs. meta-amidines
[9] = ATCC30957, Table III, 50% inhibition of 3H-thymidine incorporation, WB strain, 24 h with drug, read-out: IC50, Giardia lamblia vs. para-imidazolines
[10] = ATCC30957, Table IV, Stock WB (ATCC 30957), read-out: IC50 determined by 3H-thymidine incorporation

`N=C(N)c1ccc(OCCOc2ccc(C(=N)N)cc2N)c(N)c1` [Example 1] gave an IC50 [1, 6] of 1180 µM.

`N=C(N)c1ccc(NCCNc2ccc(C(=N)N)cc2N)c(N)c1` [Example 2] gave an IC50 [1, 6] of 744 µM.

`N=C(N)c1ccc(OCCCOc2ccc(C(=N)N)cc2)cc1` [Example 3] showed an IC50 [1, 6] of 12.3 µM.

`N=C(N)c1ccc(OCCCOc2ccc(C(=N)N)cc2N)c(N)c1` [Example 4] showed an IC50 [1, 6] of 15.4 µM.

Work on `COc1cc(C(=N)N)ccc1OCCCOc1ccc(C(=N)N)cc1OC` [Example 5] yielded an IC50 [1, 6] of 3.2 µM.

With `N=C(N)c1ccc(NCCCNc2ccc(C(=N)N)cc2)cc1` [Example 6] the IC50 [1, 6] was 68.2 µM.

With `N=C(N)c1ccc(NCCCNc2ccc(C(=N)N)cc2[N+](=O)[O-])c([N+](=O)[O-])c1` [Example 7] the IC50 [1, 7] was 84.2 µM.

`N=C(N)c1ccc(OCCCCOc2ccc(C(=N)N)cc2)cc1` [Example 8] gave an IC50 [1, 6] of 61.6 µM.

With `N=C(N)c1ccc(OCCCCOc2ccc(C(=N)N)cc2N)c(N)c1` [Example 9] the IC50 [1, 6] was 96.8 µM.

`N=C(N)c1ccc(OCCCCOc2ccc(C(=N)N)cc2[N+](=O)[O-])c([N+](=O)[O-])c1` [Example 10] showed an IC50 [1, 7] of 53.2 µM.

With `COc1cc(C(=N)N)ccc1OCCCCOc1ccc(C(=N)N)cc1OC` [Example 11] the IC50 [1, 6] was 68.8 µM.

`N=C(N)c1ccc(OCCCCOc2ccc(C(=N)N)cc2Cl)c(Cl)c1` [Example 12] gave an IC50 [1, 6] of 27.7 µM.

`N=C(N)c1ccc(NCCCCNc2ccc(C(=N)N)cc2)cc1` [Example 13] showed an IC50 [1, 6] of 50.7 µM.

With `N=C(N)c1ccc(NCCCCNc2ccc(C(=N)N)cc2N)c(N)c1` [Example 14] the IC50 [1, 6] was 108 µM.

For `N=C(N)c1ccc(OCCCCCOc2ccc(C(=N)N)cc2)cc1` [Example 15, reference compound], the IC50 [1, 7] was 76.5 µM and the “efficacy against Giardia lamblia (in words)” value [1] was “moderately effective”.

Work on `N=C(N)c1ccc(OCCCCCOc2ccc(C(=N)N)cc2N)c(N)c1` [Example 16] yielded an IC50 [1, 6] of 66.3 µM.

With `N=C(N)c1ccc(OCCCCCOc2ccc(C(=N)N)cc2[N+](=O)[O-])c([N+](=O)[O-])c1` [Example 17] the IC50 [1, 7] was 26.1 µM.

Work on `COc1cc(C(=N)N)ccc1OCCCCCOc1ccc(C(=N)N)cc1OC` [Example 18] yielded an IC50 [1, 6] of 24 µM.

For `N=C(N)c1ccc(OCCCCCOc2ccc(C(=N)N)cc2Cl)c(Cl)c1` [Example 19], the IC50 [1, 6] was 16.3 µM.

In the case of `N=C(N)c1ccc(NCCCCCNc2ccc(C(=N)N)cc2)cc1` [Example 20], the IC50 [1, 6] is reported as 40.6 µM.

Compound `N=C(N)c1ccc(NCCCCCNc2ccc(C(=N)N)cc2N)c(N)c1` [Example 21] has an IC50 [1, 6] of 48.6 µM.

Work on `N=C(N)c1ccc(NCCCCCNc2ccc(C(=N)N)cc2[N+](=O)[O-])c([N+](=O)[O-])c1` [Example 22] yielded an IC50 [1, 7] of 29.9 µM.

`N=C(N)c1ccc(OCCCCCCOc2ccc(C(=N)N)cc2)cc1` [Example 23] gave an IC50 [1, 6] of 34.3 µM.

With `N=C(N)c1ccc(OCCCCCCOc2ccc(C(=N)N)cc2N)c(N)c1` [Example 24] the IC50 [1, 6] was 38.7 µM.

Compound `N=C(N)c1ccc(NCCCCCCNc2ccc(C(=N)N)cc2)cc1` [Example 25] has an IC50 [1, 6] of 4.2 µM.

For `N=C(N)c1ccc(NCCCCCCNc2ccc(C(=N)N)cc2N)c(N)c1` [Example 26], the IC50 [1, 6] was 21.9 µM.

Compound `N=C(N)c1cccc(OCCCOc2cccc(C(=N)N)c2)c1` [Example 27] has an IC50 [1, 8] of 560 µM.

`N=C(N)c1cccc(OCCCCOc2cccc(C(=N)N)c2)c1` [Example 28] showed an IC50 [1, 8] of 106 µM.

`N=C(N)c1cccc(OCCCCCOc2cccc(C(=N)N)c2)c1` [Example 29] gave an IC50 [1, 8] of 55.8 µM.

`N=C(N)c1cccc(OCCCCCCOc2cccc(C(=N)N)c2)c1` [Example 30] showed an IC50 [1, 8] of 84.2 µM.

In the case of `COc1cc(C2=NCCN2)ccc1OCCCOc1ccc(C2=NCCN2)cc1OC` [Example 31], the IC50 [1, 9] is reported as 25.4 µM and the “efficacy against Giardia lamblia (in words)” value [1] is reported as “slightly less efficacious than the amidine counterpart of Example 5”.

Compound `c1cc(C2=NCCN2)ccc1OCCCCOc1ccc(C2=NCCN2)cc1` [Example 32] has an IC50 [1, 9] of 26 µM.

`CN1CCN=C1c1ccc(OCCCCOc2ccc(C3=NCCN3C)cc2)cc1` [Example 33] showed an IC50 [1, 9] of 346 µM.

For `c1cc(C2=NCCN2)ccc1OCCCCCOc1ccc(C2=NCCN2)cc1` [Example 34], the IC50 [1, 9] was 39.2 µM.

Work on `CN1CCN=C1c1ccc(OCCCCCOc2ccc(C3=NCCN3C)cc2)cc1` [Example 35] yielded an IC50 [1, 9] of 373 µM.

`COc1cc(C2=NCCN2)ccc1OCCCCCOc1ccc(C2=NCCN2)cc1OC` [Example 36] showed an IC50 [1, 9] of 47.1 µM.

For `O=C1OCCN1N=Cc1ccc([N+](=O)[O-])o1` [Furazolidone], the IC50 [1, 10] is given as 1.9 µM, the IC50 [2] is given as 0.74 µM and the IC50 [3] is given as 0.6 µM. For the same compound, the IC50 [4] was 2.5 µM and the IC50 [5] was 0.43 µM.

For `Cc1ncc([N+](=O)[O-])n1CCO` [Metronidazole], the IC50 [1, 10] is given as 3.65 µM, the IC50 [2] is given as 0.91 µM and the IC50 [3] is given as 2.14 µM. For the same compound, the IC50 [4] was 1.08 µM and the IC50 [5] was 2.21 µM.

In the case of `CCN(CC)CCCC(C)Nc1c2ccc(Cl)cc2nc2ccc(OC)cc12` (centres unmarked) [Quinacrine . HCl], the IC50 [1, 10] is listed as 1.41 µM, the IC50 [2] is listed as 1.18 µM and the IC50 [3] is listed as 1.09 µM. For the same compound, the IC50 [4] was 1.59 µM and the IC50 [5] was 4.02 µM.
